Measurements reported in publication PMC3687523 (Biochemical pharmacology, 2013).

How the values were obtained:
rat brain CYP2D [1] = details: 20 μg i.c.v. propranolol
rat brain CYP2D [2] = test system: rat brain CYP2D
[3] = 30 min after 30 mg/kg s.c. codeine
[4] = 20 μg i.c.v. propranolol, 30 mg/kg s.c. codeine

CC(C)NCC(O)COc1cccc2ccccc12 (centres unmarked) [propranolol]
brain morphine concentration, compared to vehicle-pretreated rats (rat brain CYP2D [1]; [3]): significantly lower | plasma morphine concentration, compared to vehicle-pretreated rats (rat brain CYP2D [1]; [3]): equal | brain morphine concentrations, propranolol- vs vehicle-pretreated rats (rat brain CYP2D [1]; at both 60 and 90 min after 30 mg/kg s.c. codeine): no significant difference | percentage of maximal analgesic effect (%MPE) after codeine, compared to vehicle pretreatment (rat brain CYP2D [2]; 20 μg i.c.v. propranolol 24 h before 30 mg/kg s.c. codeine, at 15, 20, 30 and 40 min): significantly lower | area under the analgesia-time curve (AUC) 0-30 min after codeine, compared to vehicle pretreatment (rat brain CYP2D [2]; [4]): significantly lower | area under the analgesia-time curve (AUC) 60-120 min after codeine, compared to vehicle pretreatment (rat brain CYP2D [2]; [4]): Neither inhibitor resulted in lower AUC | AUC of analgesia after morphine, compared to vehicle pretreatment (rat brain CYP2D [2]; 40 μg i.c.v. propranolol, 5 mg/kg s.c. morphine, all time periods): did not result in significantly different | %MPE after morphine, compared to vehicle pretreatment (rat brain CYP2D [2]; 40 μg i.c.v. propranolol, 5 mg/kg s.c. morphine, all time points): did not result in significantly different %MPE
